These results are taken from ChEMBL document CHEMBL5257129, “Design, synthesis, and anticancer evaluation of arylurea derivatives as potent and selective type II irreversible covalent FGFR4 inhibitors” (Bioorg Med Chem, 2023).

Series [1] relates to Huh-7. Briefly: Antiproliferative activity against human Huh-7 cells assessed as inhibition of cell growth at 10 uM measured after 72 hrs by CCK8 assay. In kind it is functional. On the technique in general: Formazan colour is commonly taken as a measure of viable cells.
The subject of series [2] is Huh-7. Briefly: Antiproliferative activity against human Huh-7 cells assessed as inhibition of cell growth measured after 72 hrs by CCK8 assay. The class given is functional, cell-based. Conditions: Huh-7, 72 h.
For series [3], the system named is Hep 3B2. In words: Antiproliferative activity against human Hep3B cells assessed as inhibition of cell growth at 10 uM measured after 72 hrs by CCK8 assay. In kind it is functional.
The test system of series [4] is Hep 3B2. Briefly: Antiproliferative activity against human Hep3B cells assessed as inhibition of cell growth measured after 72 hrs by CCK8 assay. The class given is functional, cell-based.
A short description of series [5]: Clearance in Sprague-Dawley rat at 5 mg/kg, iv measured upto 24 hrs by LC/MS/MS analysis. In kind it is ADME, organism-based. Conditions: in vivo.
A short description of series [6]: Tmax in Sprague-Dawley rat at 5 mg/kg, iv measured upto 24 hrs by LC/MS/MS analysis. Conditions: in vivo. In kind it is ADME, organism-based.
Series [7] can be described thus: Half life in Sprague-Dawley rat at 5 mg/kg, iv measured upto 24 hrs by LC/MS/MS analysis. In kind it is ADME, organism-based. To be noted: in vivo.
The nature of series [8]: Half life in Sprague-Dawley rat at 20 mg/kg, po measured upto 24 hrs by LC/MS/MS analysis. In kind it is ADME, organism-based. Conditions: in vivo.
Series [9] can be described thus: Cmax in Sprague-Dawley rat at 20 mg/kg, po measured upto 24 hrs by LC/MS/MS analysis. In kind it is ADME, organism-based. Further details: dose 20 mg/kg, time < 24 hrs, route po. Conditions: in vivo.
The nature of series [10]: Mean residence time (0 to t) in Sprague-Dawley rat at 5 mg/kg, iv measured upto 24 hrs by LC/MS/MS analysis. Conditions: in vivo. The class given is ADME, organism-based.
Series [11] can be described thus: Tmax in Sprague-Dawley rat at 20 mg/kg, po measured upto 24 hrs by LC/MS/MS analysis. In kind it is ADME, organism-based. To be noted: in vivo.
Series [12] can be described thus: AUC(0 to t) in Sprague-Dawley rat at 5 mg/kg, iv measured upto 24 hrs by LC/MS/MS analysis. In kind it is ADME, organism-based. On the set-up: time < 24 hrs, dose 5 mg/kg, route iv. To be noted: in vivo.
A short description of series [13]: AUC(0 to infinity) in Sprague-Dawley rat at 5 mg/kg, iv measured upto 24 hrs by LC/MS/MS analysis. The class given is ADME, organism-based. On the set-up: dose 5 mg/kg, time < 24 hrs, route iv. Conditions: in vivo.
Series [14] is described as follows: Mean residence time (0 to t) in Sprague-Dawley rat at 20 mg/kg, po measured upto 24 hrs by LC/MS/MS analysis. The class given is ADME, organism-based. To be noted: in vivo.
The nature of series [15]: Cmax in Sprague-Dawley rat at 5 mg/kg, iv measured upto 24 hrs by LC/MS/MS analysis. The class given is ADME, organism-based. On the set-up: time < 24 hrs, dose 5 mg/kg, route iv. To be noted: in vivo.
Series [16] is described as follows: Initial plasma concentration in Sprague-Dawley rat at 5 mg/kg, iv measured upto 24 hrs by LC/MS/MS analysis. The class given is ADME, organism-based.
Series [17] is described as follows: Apparent volume of distribution in Sprague-Dawley rat at 5 mg/kg, iv measured upto 24 hrs by LC/MS/MS analysis. The class given is ADME, organism-based. Conditions: in vivo, read-out: Vz.
Series [18] in a line: AUC(0 to t) in Sprague-Dawley rat at 20 mg/kg, po measured upto 24 hrs by LC/MS/MS analysis. In kind it is ADME, organism-based. On the set-up: dose 20 mg/kg, time < 24 hrs, route po. Conditions: in vivo.
Series [19] can be described thus: AUC(0 to infinity) in Sprague-Dawley rat at 20 mg/kg, po measured upto 24 hrs by LC/MS/MS analysis. In kind it is ADME, organism-based. On the set-up: dose 20 mg/kg, time < 24 hrs, route po. Conditions: in vivo.

Consider `Cc1ccc(C(=O)Nc2ccc(CN3CCN(C)CC3)c(C(F)(F)F)c2)cc1C#Cc1cnc2cccnn12` [PONATINIB], for which the inhibition – broadly, the relative decrease from the control value, in per cent – at 10 µM in the series on Huh-7 [1] turned out to be 90.5%; with Hep 3B2 [3] it was 95.5%. Moreover, the IC50 (commonly the point on the concentration scale where inhibition reaches its midpoint) in the series with Huh-7 [2] stood at 990 nM; with Hep 3B2 [4] it was 720 nM.
For `C=CC(=O)Nc1ccc(-c2ccc(NC(=O)Nc3ccc(CN4CCN(C)CC4)c(C(F)(F)F)c3)c(C)c2)cn1`, in that order: 94.8%, 94.6%, 3350 nM and 3180 nM.
As for `C=CC(=O)Nc1ccc(-c2ccc(NC(=O)Nc3ccc(CN4CCN(CC)CC4)c(C(F)(F)F)c3)c(C)c2)cn1`, the inhibition at 10 µM is 80.3% in the series with Huh-7 [1] and 85.4% with Hep 3B2 [3].
As to `C=CC(=O)Nc1ccc(-c2ccc(NC(=O)Nc3ccc(CN4CCN(C)CC4)c(C(F)(F)F)c3)cc2C)cn1`, the inhibition at 10 µM stood at 96.9% in the series with Huh-7 [1] and 95.3% with Hep 3B2 [3].
Turning to `C/C=C/C(=O)Nc1ccc(Oc2ccc(NC(=O)Nc3ccc(CN4CCN(C)CC4)c(C(F)(F)F)c3)c(C)c2)cn1`, the inhibition at 10 µM with Huh-7 [1] was determined as 86.7%; with Hep 3B2 [3], 87%. Besides, the 50% inhibitory concentration (IC50) in the series on Huh-7 [2] turned out to be 1020 nM; in the series on Hep 3B2 [4] it was 1120 nM.
As for `C=CC(=O)Nc1ccc(-c2ccc(NC(=O)Nc3ccc(CN4CCN(C)CC4)c(C(F)(F)F)c3)cc2)cn1`, the inhibition at 10 µM in the series on Huh-7 [1] came to 94.8%; in the series with Hep 3B2 [3], 95.8%.
For `C=CC(=O)Nc1ccc(-c2ccc(NC(=O)Nc3ccc(CN4CCN(C)CC4)c(C(F)(F)F)c3)cc2F)cn1`, in that order: 96.7% and 95.7%.
For the compound `C=CC(=O)Nc1ccc(-c2cnc(NC(=O)Nc3ccc(CN4CCN(C)CC4)c(C(F)(F)F)c3)cn2)cn1`, the inhibition at 10 µM in the series with Huh-7 [1] came to 84.5%; with Hep 3B2 [3], 86.1%.
`C=CC(=O)Nc1ccc(Oc2ccc(NC(=O)Nc3ccc(CN4CCN(C)CC4)c(C(F)(F)F)c3)cc2)cn1`: the clearance (as a rule, a measure of how efficiently the substance is removed, as volume per time) in [5] is 19.6 mL/min/kg. For the same compound, the time to peak (Tmax) (usually the time from dosing to the highest level) in [6] is 4.98 min; in [11] it was 2.67 h. The half-life (commonly the time in which the quantity being followed falls by half) in series [7] was 4.75 h; in [8], 3.12 h. Besides, the figures for the inhibition at 10 µM in the series on Huh-7 [1] and in the series with Hep 3B2 [3] were 97.7% and 91%, respectively. Further, the IC50 in the series with Huh-7 [2] came to 250 nM; with Hep 3B2 [4], 220 nM. The Cmax – broadly, the peak of the concentration-time curve – turned out to be 23.7 ng/mL in series [9] and 4190 ng/mL in [15]. The figures for the MRT last at 24 h in [10] and in [14] were 1.25 h and 3.99 h, respectively. Moreover, the exposure AUC(0-t) (commonly exposure summed from dosing to a finite time, without extrapolation to infinity) at 24 h in [12] was found to be 4240 ng·h/mL; in series [18], 140 ng·h/mL. In addition, the results for the AUC(0-inf) in series [13] and in series [19] were 4260 ng·h/mL and 149 ng·h/mL, respectively. For the same compound, the C0 at 24 h in [16] came out at 4930 ng/mL. For the same compound, in series [17], the Vd came to 8.1 L/kg.
Turning to `C=CC(=O)Nc1ccc(-c2ccc(NC(=O)Nc3ccc(CN4CCN(C)CC4)c(C(F)(F)F)c3)nc2)cn1`, the inhibition at 10 µM stood at 59% in the series with Huh-7 [1] and 67% in the series on Hep 3B2 [3].
On the same counts, the results for `CC#CC(=O)Nc1ccc(Oc2ccc(NC(=O)Nc3ccc(CN4CCN(C)CC4)c(C(F)(F)F)c3)c(C)c2)cn1` are 93.2% and 92.3%.
Take `Cc1cc(-c2ccc(NC(=O)CCl)nc2)ccc1NC(=O)Nc1ccc(CN2CCN(C)CC2)c(C(F)(F)F)c1`: the inhibition at 10 µM in the series on Huh-7 [1] worked out at 80.9%; with Hep 3B2 [3] it was 87.6%. Moreover, the results for the half-maximal inhibitory concentration (IC50) with Huh-7 [2] and in the series on Hep 3B2 [4] were 21500 nM and 22100 nM, respectively.
Consider `C=C(F)C(=O)Nc1ccc(-c2ccc(NC(=O)Nc3ccc(CN4CCN(C)CC4)c(C(F)(F)F)c3)c(C)c2)cn1`, for which the inhibition at 10 µM in the series with Huh-7 [1] came to 93%; with Hep 3B2 [3], 91.2%. Also, the results for the 50% inhibitory concentration (IC50) in the series on Huh-7 [2] and in the series on Hep 3B2 [4] were 3380 nM and 3240 nM, respectively.
Take `C=CC(=O)Nc1ccc(Oc2ccc(NC(=O)Nc3ccc(CN4CCN(C)CC4)c(C(F)(F)F)c3)c(C)c2)cn1`: the inhibition at 10 µM is 87.2% in the series with Huh-7 [1] and 84.7% with Hep 3B2 [3].
On to `C=CC(=O)Nc1ccc(-c2ccc(NC(=O)Nc3ccc(CN4CCN(C)CC4)c(C(F)(F)F)c3)c(Cl)c2)cn1`, for which the inhibition at 10 µM with Huh-7 [1] stood at 91.4%; in the series on Hep 3B2 [3], 99.1%. Besides, the IC50 with Huh-7 [2] stood at 1620 nM; in the series with Hep 3B2 [4], 1270 nM.
